Results on 1 compound are retold here after PubChem BioAssay AID1383 (University of Pittsburgh Molecular Library Screening Center, 2008).

For this assay, the target named is Serine/threonine-protein kinase PLK1 (Homo sapiens) (UniProt P53350). Put plainly: PLK1 kinase inhibition, dose response, selectivity assay for PKD inhibitor project, biochemical (AID 1383). The note with it: counterscreen.

Active and inactive are the calls of the source. No rule for the calls is given here.

Chain of Serine/threonine-protein kinase PLK1 (Homo sapiens) (P53350 whole entry, looked up): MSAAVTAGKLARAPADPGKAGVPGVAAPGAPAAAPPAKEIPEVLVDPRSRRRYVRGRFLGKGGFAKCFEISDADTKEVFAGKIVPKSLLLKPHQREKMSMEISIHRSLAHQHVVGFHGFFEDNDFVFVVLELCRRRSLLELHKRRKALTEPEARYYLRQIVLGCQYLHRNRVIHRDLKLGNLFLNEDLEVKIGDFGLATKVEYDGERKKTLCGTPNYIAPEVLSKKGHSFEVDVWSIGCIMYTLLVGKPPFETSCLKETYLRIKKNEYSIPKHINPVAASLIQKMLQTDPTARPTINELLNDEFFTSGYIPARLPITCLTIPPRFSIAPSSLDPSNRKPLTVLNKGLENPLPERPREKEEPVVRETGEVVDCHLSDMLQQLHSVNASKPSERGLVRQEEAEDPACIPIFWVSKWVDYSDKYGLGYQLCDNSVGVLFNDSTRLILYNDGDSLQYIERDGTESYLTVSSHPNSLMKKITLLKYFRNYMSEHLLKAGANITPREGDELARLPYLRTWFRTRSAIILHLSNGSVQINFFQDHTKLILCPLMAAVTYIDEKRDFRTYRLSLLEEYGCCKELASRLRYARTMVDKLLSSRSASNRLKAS

Turning to `Clc1cncc(Cl)c1N/N=C/c1ccncc1`, the IC50 is > 50 µM (inactive).
